The source of these data is ChEMBL document CHEMBL4002573, “New insights into the SAR and drug combination synergy of 2-(quinolin-4-yloxy)acetamides against Mycobacterium tuberculosis” (Eur J Med Chem, 2017).

Usually half-life stands for the time in which the quantity being followed falls by half. What is called IC50 is the point on the concentration scale where inhibition reaches its midpoint.

Values after ≈ are worked out from the molar mass of the structure shown.

Series [1] can be described thus: Intrinsic clearance in human liver S9 fraction at 2 uM by HPLC-MS/MS analysis. It counts as ADME, tissue-based.
Series [2] relates to Mycobacterium tuberculosis. As to the kind of experiment: microbe, parasite or virus in culture. Particulars: PE-003, 168 h.
Description: Antimycobacterial activity against Mycobacterium tuberculosis PE-003 clinical isolate after 7 days by resazurin reduction microplate assay
For series [3], the system named is Mycobacterium tuberculosis. It counts as functional. Particulars: H37Rv, 168 h.
The nature of series [4]: Kinetic solubility in PBS at pH 7.4. In kind it is physicochemical. Particulars: read-out: Kinetic_solubility.
Series [5] relates to Mycobacterium tuberculosis. In words: Bactericidal activity against Mycobacterium tuberculosis H37Rv infected in mouse RAW264.7 cells assessed as bacterial colony formation at 5 uM after 5 days (reference value: 4.1 to 4.73 log10CU). In kind it is functional.
Series [6] can be described thus: Kinetic solubility in water at pH 5.8. In kind it is physicochemical. Particulars: read-out: Kinetic_solubility.
Series [7] is described as follows: Thermodynamic solubility of the compound in 0.1N HCl at pH 1.5 after 24 hrs by HPLC method. In kind it is physicochemical. Particulars: read-out: Therm_solubility.
A short description of series [8]: Cytotoxicity against human HaCaT cells assessed as viability at 10 uM after 72 hrs by MTT assay relative to control. Particulars: read-out: Activity. It counts as cell-based.
Series [9] relates to Mycobacterium tuberculosis. It counts as functional. Particulars: H37Rv, 168 h. The source holds these as a separate data set.
The test system of series [10] is Mycobacterium tuberculosis. In kind it is functional. Particulars: H37Rv, 168 h. This is another data set of the same source.
Series [11] can be described thus: Permeability of the compound at 1 uM […] by PAMPA. It counts as physicochemical. Particulars: read-out: permeability. For orientation: In PAMPA a lipid-coated filter parts donor from acceptor wells.
Series [12] in a line: Thermodynamic solubility of the compound in acetate buffer at pH 4 after 24 hrs by HPLC method. In kind it is physicochemical. Particulars: read-out: Therm_solubility.
The subject of series [13] is Mycobacterium tuberculosis. As to the kind of experiment: microbe, parasite or virus in culture. Particulars: H37Rv, 168 h.
Description: Antimycobacterial activity against Mycobacterium tuberculosis H37Rv after 7 days by resazurin reduction microplate assay
Series [14] in a line: Half life in human liver S9 fraction at 2 uM by HPLC-MS/MS analysis. In kind it is ADME, tissue-based.
The test system of series [15] is Mycobacterium tuberculosis. In kind it is functional. Particulars: H37Rv, 168 h. This is another data set of the same source.
Series [16] is described as follows: Cytotoxicity against African green monkey Vero cells assessed as viability at 10 uM after 72 hrs by MTT assay relative to control. In kind it is cell-based. Particulars: chlorocebus sabaeus, read-out: Activity. Background: Tetrazolium assays rely on reduction of a dye to a coloured formazan, in cell work by metabolically active cells.
The nature of series [17]: Cytotoxicity against human HepG2 cells assessed as viability at 10 uM after 72 hrs by MTT assay relative to control. It counts as cell-based. Particulars: read-out: Activity.
Series [18] can be described thus: Cytotoxicity against mouse RAW264.7 cells assessed as viability at 10 uM after 72 hrs by MTT assay relative to control. It counts as cell-based. Particulars: read-out: Activity.
The nature of series [19]: Cytotoxicity against mouse N9 cells assessed as viability at 10 uM after 72 hrs by MTT assay relative to control. It counts as cell-based. Particulars: read-out: Activity.
In series [20] the test system is Mycobacterium tuberculosis. It counts as functional. Particulars: H37Rv, 168 h. This is another data set of the same source.
Series [21] relates to Mycobacterium tuberculosis. It counts as functional. Particulars: H37Rv, 168 h. This is another data set of the same source.
Series [22] relates to Mycobacterium tuberculosis. In words: microbe, parasite or virus in culture. Particulars: CDCT-4 (1105/09), 168 h.
Description: Antimycobacterial activity against Mycobacterium tuberculosis CDCT-4 (1105/09) clinical isolate after 7 days by resazurin reduction microplate assay
For another series, the target named is Cytochrome P450 2E1 (Homo sapiens, UniProt P05181). As to the kind of experiment: Inhibition of CYP2E1 in human liver microsomes using chlorzoxazone as substrate by HPLC-MS/MS method. In kind it is ADME. A general note: Microsomes from liver hold many membrane-bound enzymes, among them those of drug oxidation.
Sequence of Cytochrome P450 2E1 (P05181 whole entry): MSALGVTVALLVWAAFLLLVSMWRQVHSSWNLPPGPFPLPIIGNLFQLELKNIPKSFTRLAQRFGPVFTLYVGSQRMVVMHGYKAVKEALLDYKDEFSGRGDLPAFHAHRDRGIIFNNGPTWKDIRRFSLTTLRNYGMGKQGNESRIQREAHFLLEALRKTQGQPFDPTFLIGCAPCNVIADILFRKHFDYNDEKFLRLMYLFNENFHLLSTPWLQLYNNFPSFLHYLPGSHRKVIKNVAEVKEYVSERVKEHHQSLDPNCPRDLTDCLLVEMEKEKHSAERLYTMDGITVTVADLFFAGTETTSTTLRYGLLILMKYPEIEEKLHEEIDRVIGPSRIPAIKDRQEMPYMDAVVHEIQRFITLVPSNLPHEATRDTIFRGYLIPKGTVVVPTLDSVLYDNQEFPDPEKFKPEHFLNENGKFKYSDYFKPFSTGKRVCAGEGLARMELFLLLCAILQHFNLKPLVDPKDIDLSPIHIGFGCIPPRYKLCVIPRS
In series [23] the test system is Mycobacterium tuberculosis. In words: Potency index, ratio of isoniazid MIC to test compound MIC for Mycobacterium tuberculosis H37Rv. It counts as functional.
In a further series the target is Cytochrome P450 3A4 (Homo sapiens, UniProt P08684). In words: Inhibition of CYP3A4 in human liver microsomes using testosterone as substrate by HPLC-MS/MS method. It counts as ADME.
Sequence of Cytochrome P450 3A4 (P08684 whole entry): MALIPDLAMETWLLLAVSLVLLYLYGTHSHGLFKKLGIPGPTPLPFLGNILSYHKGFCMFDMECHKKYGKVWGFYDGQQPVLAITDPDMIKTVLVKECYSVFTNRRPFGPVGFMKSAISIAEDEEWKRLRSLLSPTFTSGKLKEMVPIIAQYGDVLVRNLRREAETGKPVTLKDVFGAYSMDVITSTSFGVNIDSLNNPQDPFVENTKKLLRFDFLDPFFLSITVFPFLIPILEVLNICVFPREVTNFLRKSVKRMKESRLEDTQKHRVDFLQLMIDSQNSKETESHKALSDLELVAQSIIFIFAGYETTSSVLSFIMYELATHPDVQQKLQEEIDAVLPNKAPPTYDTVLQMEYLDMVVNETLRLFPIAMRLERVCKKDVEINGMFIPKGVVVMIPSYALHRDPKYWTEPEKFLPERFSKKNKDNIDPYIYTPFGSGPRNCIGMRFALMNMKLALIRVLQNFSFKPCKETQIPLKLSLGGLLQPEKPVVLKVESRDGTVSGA
Series [24] relates to Mycobacterium tuberculosis. As to the kind of experiment: Potency index, ratio of moxifloxacin MIC to test compound MIC for Mycobacterium tuberculosis PE-003 clinical isolate. In kind it is functional.
In another series the target is Cytochrome P450 2D6 (Homo sapiens, UniProt P10635). As to the kind of experiment: Inhibition of CYP2D6 in human liver microsomes using dextromethorphan as substrate by HPLC-MS/MS method. In kind it is ADME.
Sequence of Cytochrome P450 2D6 (P10635 whole entry): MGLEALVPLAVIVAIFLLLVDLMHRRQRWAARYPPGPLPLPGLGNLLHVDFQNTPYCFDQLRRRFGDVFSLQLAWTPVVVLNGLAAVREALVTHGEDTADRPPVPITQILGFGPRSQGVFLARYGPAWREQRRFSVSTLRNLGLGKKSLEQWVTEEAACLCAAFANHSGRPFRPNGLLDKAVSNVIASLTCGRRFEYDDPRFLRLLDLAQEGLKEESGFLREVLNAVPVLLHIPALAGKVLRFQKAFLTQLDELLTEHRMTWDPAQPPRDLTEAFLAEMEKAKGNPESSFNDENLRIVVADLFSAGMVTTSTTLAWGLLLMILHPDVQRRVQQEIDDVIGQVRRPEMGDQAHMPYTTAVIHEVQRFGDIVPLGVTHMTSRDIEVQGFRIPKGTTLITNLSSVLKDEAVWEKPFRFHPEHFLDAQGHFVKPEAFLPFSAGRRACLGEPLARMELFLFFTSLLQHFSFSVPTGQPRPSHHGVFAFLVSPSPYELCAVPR
Another series deals with T1, Cytochrome P450 1A2 (Homo sapiens, UniProt P05177).
T1 sequence (P05177 whole entry): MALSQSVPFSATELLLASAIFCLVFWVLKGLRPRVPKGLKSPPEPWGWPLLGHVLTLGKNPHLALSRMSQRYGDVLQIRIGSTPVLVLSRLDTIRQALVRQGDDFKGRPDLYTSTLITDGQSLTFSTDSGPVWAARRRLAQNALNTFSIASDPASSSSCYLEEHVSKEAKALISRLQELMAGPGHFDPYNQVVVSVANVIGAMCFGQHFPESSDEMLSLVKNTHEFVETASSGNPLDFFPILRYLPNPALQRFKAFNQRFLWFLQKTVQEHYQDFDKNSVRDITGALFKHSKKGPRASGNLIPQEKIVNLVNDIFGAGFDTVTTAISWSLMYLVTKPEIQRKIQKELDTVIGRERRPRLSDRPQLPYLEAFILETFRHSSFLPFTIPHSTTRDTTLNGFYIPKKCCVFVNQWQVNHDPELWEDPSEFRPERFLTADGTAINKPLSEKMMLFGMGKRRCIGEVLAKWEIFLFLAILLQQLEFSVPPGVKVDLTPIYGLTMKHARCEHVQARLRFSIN
In words: Inhibition of CYP1A2 in human liver microsomes using phenacetin as substrate by HPLC-MS/MS method. It counts as ADME.

A further series deals with Cytochrome P450 2C9 (Homo sapiens, UniProt P11712). In words: Inhibition of CYP2C9 in human liver microsomes using tolbutamide as substrate by HPLC-MS/MS method. It counts as ADME.
Sequence of Cytochrome P450 2C9 (P11712 whole entry): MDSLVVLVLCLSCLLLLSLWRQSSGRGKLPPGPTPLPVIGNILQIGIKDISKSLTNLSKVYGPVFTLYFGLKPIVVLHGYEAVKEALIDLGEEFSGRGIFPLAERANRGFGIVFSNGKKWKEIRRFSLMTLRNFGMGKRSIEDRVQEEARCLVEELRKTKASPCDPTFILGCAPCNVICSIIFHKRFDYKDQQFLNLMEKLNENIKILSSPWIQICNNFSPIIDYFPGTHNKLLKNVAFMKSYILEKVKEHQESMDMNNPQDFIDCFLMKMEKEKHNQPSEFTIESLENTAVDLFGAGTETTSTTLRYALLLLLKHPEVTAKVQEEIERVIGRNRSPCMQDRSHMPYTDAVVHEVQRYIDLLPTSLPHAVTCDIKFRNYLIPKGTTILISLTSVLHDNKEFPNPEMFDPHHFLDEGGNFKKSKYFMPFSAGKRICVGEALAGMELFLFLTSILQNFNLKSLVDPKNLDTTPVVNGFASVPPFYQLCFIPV
Series [25] deals with Mycobacterium tuberculosis. In kind it is functional, H37Rv.
Another series deals with Cytochrome P450 2C19 (Homo sapiens, UniProt P33261). In words: Inhibition of CYP2C19 in human liver microsomes using S-(+)-mephenytoin as substrate by HPLC-MS/MS method. In kind it is ADME.
Sequence of Cytochrome P450 2C19 (P33261 whole entry): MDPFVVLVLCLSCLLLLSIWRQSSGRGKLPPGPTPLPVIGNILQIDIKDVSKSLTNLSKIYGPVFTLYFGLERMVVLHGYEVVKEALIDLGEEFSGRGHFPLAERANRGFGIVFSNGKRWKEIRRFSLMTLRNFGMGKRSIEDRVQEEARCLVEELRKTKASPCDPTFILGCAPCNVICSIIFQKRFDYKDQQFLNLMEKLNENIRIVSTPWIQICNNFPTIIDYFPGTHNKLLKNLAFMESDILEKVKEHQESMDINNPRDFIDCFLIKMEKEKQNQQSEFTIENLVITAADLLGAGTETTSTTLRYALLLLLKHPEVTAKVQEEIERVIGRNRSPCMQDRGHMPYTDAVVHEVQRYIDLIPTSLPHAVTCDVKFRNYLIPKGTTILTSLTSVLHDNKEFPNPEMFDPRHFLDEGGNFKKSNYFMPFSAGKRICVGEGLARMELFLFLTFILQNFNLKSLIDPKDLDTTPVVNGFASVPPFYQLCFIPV

`CCCc1ccc(NC(=O)COc2cc(C)nc3ccc(OC)cc23)cc1`: the CLhep predicted at 2 µM in series [1] was 12.7 mL/min/kg. The MIC in series [2] was 5 nM (≈ 0.00182 µg/mL); in [3], 2.5 ng/mL (≈ 0.00686 µM); in series [9], 5 ng/mL (≈ 0.0137 µM); in series [10], 5 ng/mL (≈ 0.0137 µM); in series [13], 0.005 to 0.05 µM (≈ 0.00182 to 0.0182 µg/mL); in [15], 2.5 ng/mL (≈ 0.00686 µM). In addition, the MIC in [20] is 0.02 µg/mL (≈ 0.0549 µM); in series [21], 2.5 ng/mL (≈ 0.00686 µM); in series [22] it was under 0.05 µM. Moreover, the solubility kinetic in series [4] was found to be 2.4 µM (≈ 0.875 µg/mL); in [6] it was 3.9 µM (≈ 1.42 µg/mL). The Activity in series [5] worked out at 2.76 log10CFU. The solubility thermodynamic at 24 h in series [7] is 260 µM (≈ 94.8 µg/mL); in series [12], 90 µM (≈ 32.8 µg/mL). Besides, the viability at 72 h, 10 µM was determined as 86% in series [8]; 87% in [16]; 64% in series [17]; 83% in series [18]; 106% in series [19]. Further, in series [11], the Papp at 1 µM was found to be 1.3 ×10⁻⁶ cm/s. In addition, the half-life at 2 µM in series [14] came out at 30.2 min.

As to `COc1ccc2nc(C)cc(OCC(=O)Nc3ccc(C)cc3)c2c1`, the CLhep predicted at 2 µM in series [1] was 13.5 mL/min/kg. For the same molecule, the results for the MIC in [2], in series [13] and in series [22] were 40 nM (≈ 0.0135 µg/mL), 0.12 µM (≈ 0.0404 µg/mL) and 0.04 µM (≈ 0.0135 µg/mL), respectively. Also, the solubility kinetic is 17.9 µM (≈ 6.02 µg/mL) in series [4] and 17 µM (≈ 5.72 µg/mL) in [6]. The Activity in series [5] is 3.38 log10CFU. Also, the solubility thermodynamic at 24 h was 1200 µM (≈ 404 µg/mL) in [7] and 2100 µM (≈ 706 µg/mL) in [12]. For the same molecule, the viability at 72 h, 10 µM came out at 100% in series [8]; 95% in series [16]; 80% in series [17]; 92% in series [18]; 106% in [19]. In addition, the Papp at 1 µM in series [11] was 11.4 ×10⁻⁶ cm/s. The same molecule showed a half-life at 2 µM in [14] of 25.4 min.

Take `CCCCCc1ccc(NC(=O)COc2cc(C)nc3ccc(OC)cc23)cc1`: the CLhep predicted at 2 µM in series [1] is 14.8 mL/min/kg. Moreover, the MIC is 1 nM (≈ 0.000392 µg/mL) in series [2]; 2.5 ng/mL (≈ 0.00637 µM) in [3]; 10 ng/mL (≈ 0.0255 µM) in series [9]; 5 ng/mL (≈ 0.0127 µM) in [10]; 0.005 to 0.01 µM (≈ 0.00196 to 0.00392 µg/mL) in [13]; 1 ng/mL (≈ 0.00255 µM) in series [15]. The MIC in [20] was 0.02 µg/mL (≈ 0.051 µM); in series [21], 10 ng/mL (≈ 0.0255 µM); in [22], under 0.05 µM. Also, the solubility kinetic in [4] was found to be 4.7 µM (≈ 1.84 µg/mL); in [6], 2.6 µM (≈ 1.02 µg/mL). Further, the IC50 on Cytochrome P450 2E1, against Cytochrome P450 3A4, against Cytochrome P450 2D6, on Cytochrome P450 1A2, against Cytochrome P450 2C9 and on Cytochrome P450 2C19 was over 30 µM in each case. For the same molecule, in [5], the Activity came to 3.23 log10CFU. Also, the Ratio in [23] is 292; in series [24], 100; in [25], 2. Further, the solubility thermodynamic at 24 h in series [7] is 30 µM (≈ 11.8 µg/mL); in series [12] it was 20 µM (≈ 7.85 µg/mL). Also, the viability at 72 h, 10 µM worked out at 105% in series [8]; 97% in series [16]; 83% in series [17]; 86% in [18]; 110% in series [19]. Further, the Papp at 1 µM in [11] amounted to 1.7 ×10⁻⁶ cm/s. This molecule also showed a half-life at 2 µM in [14] of 19.4 min.
